Assay results as given in patent US9732063B2, “Kinase inhibitors” (RESPIVERT LIMITED, priority 2012, dated 2017).
Where two headings read alike, the source gives them in different places.

Tests used:
[1] = test system: intestinal mucosa biopsies from the inflamed regions of the colon; test: Human biopsy assay (intestinal mucosa biopsies of ulcerative colitis patients); format: cell-based; conditions: 24 hours; for cytokine (IL-1β, IL-6 and IL-8) release compared to the DMSO control: biopsies from ulcerative colitis patients; for IL-1β release / IL-6 release / IL-8 release: 1 μg/ml, biopsies of UC patients, DMSO control = 100%
Description: Intestinal mucosa biopsies are obtained from the inflamed regions of the colon of IBD patients. […] DMSO control or test compounds at the desired concentration are added to the tissue and incubated for 24 hr in the organ culture chamber. The supernatant is harvested for determination of IL-6, IL-8, IL-1β and TNFα levels by R&D ELISA.

c-Src = c-Src (Homo sapiens (Human), UniProt P12931); test: c-Src enzyme inhibition (Z-LYTE FRET); format: biochemical
Outline: (§1)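 Kinase activity is measured on a dual-labelled synthetic peptide by FRET. ATP is supplied as an 800 μM solution for c-Src and a 60 μM solution for Syk. Compound is tested at four added concentrations, 4 to 0.004 μg/mL.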

PBMCs [2] = test: LPS-induced TNFα/IL-8 release in PBMC cells; format: cell-based; conditions: Homo sapiens
Outline: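 Healthy-donor PBMCs, isolated by density gradient, were pretreated with compound for 2 h and then stimulated with 1 ng/mL E. coli O111:B4 LPS for 24 h at 37 °C, 5% CO2. Supernatant IL-8 and TNFα were quantified by sandwich ELISA.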

TNBS-induced colitis = conditions: for LP inflammation / Ulcer grade: oral gavage BID, conducted over 2 days, mice; for inflammatory cell infiltrate in the reticular and laminar propria zone / ulcer grade and epithelial repair compared to the vehicle control: dosed orally at either 1 or 5 mg/kg
Description: On Day 0 of the study TNBS (200 μL) is administered intra-colonically via a plastic catheter followed by BID dosing of the vehicle, reference or test compound for 2 or 4 days. During the study animals are weighed every day and stool observations are made and recorded as a score, based on stool consistency. At the time of sacrifice on Day 2 (or Day 4) the large intestine is removed and the length and weight recorded. Sections of the colon are taken for either MPO analysis to determine neutrophil infiltration or for histopathology involving scoring to determine disease severity.

GSK3α = GSK3α (Homo sapiens (Human), UniProt P49840); test: GSK 3α enzyme inhibition (Z-LYTE FRET, Method 2); format: biochemical
Outline: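 Z-LYTE FRET: GSK3α preincubated with compound 2 h at RT, then FRET peptide and ATP added (stocks 8 μM and 40 μM) for 1 h, followed by 1 h protease development. Compound stocks 4–0.004 μg/mL; phosphorylation from coumarin/fluorescein emission ratio.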

HT29 cells = test: IL-1β-induced IL-8 release in HT29 cells; format: cell-based; conditions: Homo sapiens, HT-29, read-out: IC50 Values for Inhibition of Cytokine Release HT29 cells IL-8
Description: HT29 cells, a human colon adenocarcinoma cell line, are plated in a 96 well plate (24 hrs) and pre-treated with compounds at the desired concentration for 2 hours before addition of 5 ng/mL of IL-1β (Abcam) for 24 hours. Supernatants are harvested for IL-8 quantification by Sandwich ELISA (Duo-set, R&D System). The IC50 is determined from the dose response curve.

d-U937 cells = test: LPS-induced TNFα/IL-8 release in d-U937 cells; format: cell-based; conditions: Homo sapiens
Description: Cells are pre-incubated with final concentrations of test compound for 2 hr and are then stimulated with 0.1 μg/mL of LPS (from E. coli: O111:B4, Sigma) for 4 hr. The supernatant is collected for determination of TNFα and IL-8 concentrations by sandwich ELISA (Duo-set, R&D systems). […] The relative 50% effective concentration (REC50) is determined from the resultant concentration-response curve. The inhibition of IL-8 production is calculated at each concentration of test compound by comparison with vehicle control.

p38 MAPKα = p38 MAPKα (Homo sapiens (Human), UniProt Q16539); test: p38 MAPKα enzyme inhibition (Z-LYTE FRET, Method 2); format: biochemical
PBMCs [3] = test: IL-2 and IFN gamma release in CD3/CD28 stimulated PBMC cells; format: cell-based; conditions: Homo sapiens
Outline: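 They were cultured with compound for 3 days. IL-2 and IFN-γ in supernatants were quantified by sandwich ELISA, and IC50 was derived from the dose-response curve.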

Syk = Syk (Homo sapiens (Human), UniProt P43405); test: Syk enzyme inhibition (Z-LYTE FRET); format: biochemical
Outline: as §1

[4] = read-out: IC50 Values for Inhibition of Cytokine Release PBMCs IL-8
[5] = dU937, read-out: IC50 Values for Inhibition of Cytokine Release dU937 cells IL-8
[6] = dU937, read-out: IC50 Values for Inhibition of Cytokine Release dU937 cells TNFα
[7] = read-out: IC50 Values for Inhibition of Cytokine Release PBMCs IFNγ
[8] = read-out: IC50 Values for Inhibition of Cytokine Release PBMCs IL-2
[9] = read-out: IC50 Values for Inhibition of Cytokine Release PBMCs TNFα

Chain of c-Src (P12931 whole entry, looked up): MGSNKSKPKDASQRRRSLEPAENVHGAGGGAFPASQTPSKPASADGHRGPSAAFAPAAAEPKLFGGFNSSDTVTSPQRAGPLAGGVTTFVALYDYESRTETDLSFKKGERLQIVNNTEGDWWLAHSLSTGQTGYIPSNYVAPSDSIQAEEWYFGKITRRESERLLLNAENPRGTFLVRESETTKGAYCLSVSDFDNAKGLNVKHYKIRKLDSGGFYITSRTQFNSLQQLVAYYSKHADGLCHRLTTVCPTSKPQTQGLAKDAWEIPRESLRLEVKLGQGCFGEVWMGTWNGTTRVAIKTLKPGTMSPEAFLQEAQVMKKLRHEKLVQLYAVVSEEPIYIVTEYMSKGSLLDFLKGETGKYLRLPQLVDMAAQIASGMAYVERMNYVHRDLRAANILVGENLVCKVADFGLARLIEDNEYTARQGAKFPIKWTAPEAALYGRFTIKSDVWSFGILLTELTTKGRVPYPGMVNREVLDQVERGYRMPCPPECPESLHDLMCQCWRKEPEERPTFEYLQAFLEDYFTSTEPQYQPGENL
Chain of p38 MAPKα (Q16539 whole entry): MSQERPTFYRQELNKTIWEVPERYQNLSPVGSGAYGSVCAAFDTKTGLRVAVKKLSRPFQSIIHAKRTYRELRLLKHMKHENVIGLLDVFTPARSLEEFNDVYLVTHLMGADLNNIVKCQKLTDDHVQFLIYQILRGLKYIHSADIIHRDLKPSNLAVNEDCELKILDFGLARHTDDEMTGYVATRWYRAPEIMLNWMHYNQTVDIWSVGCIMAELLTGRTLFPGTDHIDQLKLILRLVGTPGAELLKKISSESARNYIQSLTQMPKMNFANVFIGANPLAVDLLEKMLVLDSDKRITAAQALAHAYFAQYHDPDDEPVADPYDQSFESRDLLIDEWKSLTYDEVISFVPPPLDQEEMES
Chain of GSK3α (P49840 whole entry): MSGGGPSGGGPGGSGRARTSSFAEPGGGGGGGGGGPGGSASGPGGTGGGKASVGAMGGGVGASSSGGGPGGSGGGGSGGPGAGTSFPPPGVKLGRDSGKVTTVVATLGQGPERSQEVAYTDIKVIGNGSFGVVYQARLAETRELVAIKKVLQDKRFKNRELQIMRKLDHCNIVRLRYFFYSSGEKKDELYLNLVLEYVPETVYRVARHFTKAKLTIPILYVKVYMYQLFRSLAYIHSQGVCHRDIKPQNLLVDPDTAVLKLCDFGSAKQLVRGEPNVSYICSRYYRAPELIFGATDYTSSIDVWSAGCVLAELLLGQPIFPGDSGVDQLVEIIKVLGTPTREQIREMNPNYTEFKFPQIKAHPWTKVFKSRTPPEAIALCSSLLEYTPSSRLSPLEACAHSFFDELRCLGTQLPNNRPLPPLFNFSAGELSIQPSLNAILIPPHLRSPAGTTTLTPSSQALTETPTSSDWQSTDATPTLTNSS

Structure (SMILES)	cytokine (IL-1β, IL-6 and IL-8) release compared to the DMSO control ([1]; 1 μg/mL)	IL-1β release [1]	IL-6 release [1]	IL-8 release [1]	IC50 (c-Src)	IC50 (PBMCs [2]; [4])	LP inflammation (TNBS-induced colitis; 1 mg/kg)	Ulcer grade (TNBS-induced colitis; 1 mg/kg)	LP inflammation (TNBS-induced colitis; 5 mg/kg)	Ulcer grade (TNBS-induced colitis; 5 mg/kg)	inflammatory cell infiltrate in the reticular and laminar propria zone (TNBS-induced colitis)	ulcer grade and epithelial repair compared to the vehicle control (TNBS-induced colitis)	IC50 (GSK3α)	IC50 (HT29 cells)	IC50 (d-U937 cells; [5])	IC50 (d-U937 cells; [6])	IC50 (p38 MAPKα)	IC50 (PBMCs [3]; [7])	IC50 (PBMCs [3]; [8])	IC50 (Syk)	other results
COCCOCCOCCOc1cc(Nc2nccc(Oc3ccc(NC(=O)Nc4cc(C(C)C)nn4-c4ccc(C)cc4)c4ccccc34)n2)cc(OC)c1 [Example 13, 1-(3-Isopropyl-1-(p-tolyl)-1H-pyrazol-5-yl)-3-(4-((2-((3-methoxy-5-(2-(2-(2-methoxy-ethoxy)ethoxy)ethoxy)phenyl)amino)pyrimidin-4-yl)oxy)naphthalen-1-yl)urea]	significantly inhibited	10 ± 13%	32 ± 64%	3 ± 4%	10 nM	2.5 nM	2.1 ± 0.3	2.5 ± 0.4	2.6 ± 0.3	3.1 ± 0.3	marked reduction	marked improvements	> 8920 nM	4.7 nM	1.4 nM	4.4 nM	65 nM	3 nM	19.2 nM	–	cytokine (IL-1β, IL-6 and IL-8) release compared to the DMSO control ([1]; 0.1 μg/mL (data not shown)): significantly inhibited
COCCOCCOCCOc1cc(Nc2nccc(Oc3ccc(NC(=O)Nc4cc(C(C)(C)C)nn4-c4ccc(OC)cc4)c4ccccc34)n2)cc(OC)c1 [Example 44, 1-(3-(tert-Butyl)-1-(4-methoxyphenyl)-1H-pyrazol-5-yl)-3-(4-((2-((3-methoxy-5-(2-(2-(2-methoxyethoxy)ethoxy)ethoxy)phenyl)amino)pyrimidin-4-yl)oxy)naphthalen-1-yl)urea]	significantly inhibited	4 ± 5%	25 ± 44%	2 ± 2%	10 nM	1.6 nM	–	–	–	–	marked reduction	marked improvements	–	1.2 nM	0.6 nM	0.5 nM	103 nM	1.4 nM	38.5 nM	23 nM	IC50 (PBMCs [2]; [9]): 0.6 nM
COc1cc(Nc2nccc(Oc3ccc(NC(=O)Nc4cc(C(C)(C)C)nn4-c4ccc(C)cc4)c4ccccc34)n2)cc(S(=O)(=O)C2CC2)c1 [Example 47, 1-(3-(tert-Butyl)-1-(p-tolyl)-1H-pyrazol-5-yl)-3-(4-((2-((3-(cyclopropylsulfonyl)-5-methoxy-phenyl)amino)pyrimidin-4-yl)oxy)naphthalen-1-yl)urea]	significantly inhibited	5 ± 6%	17 ± 5%	26 ± 15%	46 nM	2.6 nM	2.6 ± 0.3	3.5 ± 0.4	2.1 ± 0.3	2.8 ± 0.4	marked reduction	marked improvements	6830 nM	1.5 nM	1.2 nM	0.6 nM	162 nM	1.1 nM	95.8 nM	–	–
COCCOCCOCCOCCOCCOCCOCCOc1cc(Nc2nccc(Oc3ccc(NC(=O)Nc4cc(C(C)(C)C)nn4-c4ccc(C)cc4)c4ccccc34)n2)cc(OC)c1 [Example 51, 1-(4-((2-((3-(2,5,8,11,14,17,20-Heptaoxadocosan-22-yloxy)-5-methoxyphenyl)amino)pyrimidin-4-yl)oxy)naphthalen-1-yl)-3-(3-(tert-butyl)-1-(p-tolyl)-1H-pyrazol-5-yl)urea]	significantly inhibited	4 ± 2%	12 ± 15%	2 ± 1%	10 nM	1.9 nM	3.1 ± 0.4	2.8 ± 0.5	2.3 ± 0.4	2.6 ± 0.5	marked reduction	marked improvements	1330 nM	1.6 nM	0.4 nM	0.3 nM	53 nM	1.8 nM	40.7 nM	18 nM	–
COCCOCCOCCOc1cc(Nc2cc(Oc3ccc(NC(=O)Nc4cc(C(C)(C)C)nn4-c4ccc(C)cc4)c4ccccc34)ccn2)cc(OC)c1 [Example 56, 1-(3-(tert-Butyl)-1-(p-tolyl)-1H-pyrazol-5-yl)-3-(4-((2-((3-methoxy-5-(2-(2-(2-methoxyethoxy)ethoxy)ethoxy)phenyl)amino)pyridin-4-yl)oxy)naphthalen-1-yl)urea]	significantly inhibited	5 ± 1%	19 ± 18%	3 ± 3%	28 nM	2.4 nM	2.1 ± 0.3	2.3 ± 0.4	2.4 ± 0.3	3.2 ± 0.4	marked reduction	marked improvements	–	4.5 nM	1.4 nM	0.8 nM	140 nM	2.7 nM	152 nM	43 nM	IC50 (PBMCs [2]; [9]): 1.6 nM
COCCOCCOCCOc1cc(Nc2nccc(Oc3ccc(NC(=O)Nc4cc(C(C)(C)C)nn4-c4ccc(C)cc4)c4ccccc34)n2)cc(OC)n1 [Example 69, 1-(3-(tert-Butyl)-1-(p-tolyl)-1H-pyrazol-5-yl)-3-(4-((2-((2-methoxy-6-(2-(2-(2-methoxyethoxy)ethoxy)ethoxy)pyridin-4-yl)amino)pyrimidin-4-yl)oxy)naphthalen-1-yl)urea]	–	–	–	–	14 nM	1.6 nM	–	–	–	–	–	–	> 10000 nM	3.1 nM	0.9 nM	1.2 nM	172 nM	1.4 nM	50.3 nM	27 nM	–
